Publication PMC9504029, “Identification and Characterization of Novel Small-Molecule SMOX Inhibitors” (Medical Sciences, 2022)

Legend:
SMOX [1] = molecular target: T1, SMOX (Homo sapiens, UniProt Q9NWM0); assay: SMOX enzyme activity, HRP-luminol chemiluminescence assay; format: biochemical; details: 2 mM spermine
T1 construct: using 0.3 µg/mL of purified SMOX enzyme and 2 mM of spermine substrate
Procedure: As the catabolism of spermine by SMOX results in the stoichiometric production of H2O2, enzyme activity was quantified by chemiluminescence generated by the horseradish peroxidase-catalyzed oxidation of luminol in 96-well plates (Costar #3912; white, flat bottom), as previously described. All assays were performed in 0.083 M glycine buffer at a pH of 8 using 0.3 µg/mL of purified SMOX enzyme and 2 mM of spermine substrate. Phosphate buffer was not used to prevent the formation of polyamine–phosphate complexes. Enzyme reactions were initiated by the addition of SMOX and HRP to all other assay components; inhibitors were not pre-incubated with enzyme. Triplicate determinations were obtained for each measurement by recording the luminescence (AUC) over 60 s. Hit compounds were then confirmed by monitoring the assay over 600 s. Each triplicate assay point contained a 4th control well to monitor and normalize the data with regards to luminescent decay over time. The compounds were initially screened for activity at a concentration of 20 µM. […] The known SMOX inhibitor, MDL-72527, was used as a control. The hit compounds were then characterized by IC50 and kinetic analyses. Percent inhibition values are reported as triplicate mean % SMOX inhibition ± SD compared to the vehicle control. IC50 values were calculated in GraphPad Prism 9.3 software (Graph-Pad, San Diego, California) using a non-linear regression analysis ([Inhibitor] vs. normalized response—variable slope). Data for all enzyme assays were generated using a SpectraMax M5 plate reader (Molecular Devices) equipped with SOFTmax PRO 7.0.3 software.

SMOX [2] = molecular target: T1, SMOX; assay: Mechanism of inhibition and enzyme kinetics (Lineweaver–Burk, global fit); format: biochemical
Procedure: The mechanism of enzyme inhibition was determined using the HRP-luminol coupled enzyme assay described above. Reaction velocity (max RLU/sec over 10 min) was measured across multiple substrate and inhibitor concentrations, and individual triplicate values were plotted using a Lineweaver–Burk transformation (double-reciprocal) in GraphPad Prism 9.3 software (Graph-Pad, San Diego, CA, USA).

recombinant human MAO-A = molecular target: T2, recombinant human MAO-A (Homo sapiens, UniProt P21397); assay: MAO-Glo assay, MAO-A; format: biochemical; details: read-out: % Inhibition at 20 μM ± SD, MAO-A
T2 construct: purchased Sigma-Aldrich M7316-1VL
T2 sequence (P21397 1-527): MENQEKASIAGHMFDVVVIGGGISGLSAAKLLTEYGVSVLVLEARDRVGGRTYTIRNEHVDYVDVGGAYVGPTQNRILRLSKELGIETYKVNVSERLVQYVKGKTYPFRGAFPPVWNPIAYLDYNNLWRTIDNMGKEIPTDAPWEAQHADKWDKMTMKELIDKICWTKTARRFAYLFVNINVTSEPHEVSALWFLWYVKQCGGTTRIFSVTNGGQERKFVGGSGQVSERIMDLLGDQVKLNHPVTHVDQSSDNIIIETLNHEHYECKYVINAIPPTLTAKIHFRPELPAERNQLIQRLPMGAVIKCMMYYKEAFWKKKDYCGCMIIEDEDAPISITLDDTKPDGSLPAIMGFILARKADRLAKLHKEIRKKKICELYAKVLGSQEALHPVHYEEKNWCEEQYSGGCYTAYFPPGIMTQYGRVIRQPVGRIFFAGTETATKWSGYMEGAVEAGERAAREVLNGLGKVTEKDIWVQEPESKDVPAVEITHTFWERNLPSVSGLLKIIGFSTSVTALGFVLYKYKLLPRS
Procedure: To determine selectivity, the compounds were tested for activity against the related FAD-dependent amine oxidase enzymes LSD1, MAO-A, and MAO-B. LSD1 activity was assessed using a commercially available assay kit (#700120, Cayman Chemical, Ann Arbor, MI, USA), in which the enzyme activity was determined by the horseradish peroxidase-catalyzed oxidation of 10-acetyl-3,7-dihydroxyphenoxazine to the highly fluorescent resorufin in response to H2O2 production. Monoamine oxidase activity was determined using recombinant human MAO-A and MAO-B (M7316-1VL & M7441-1VL, Sigma-Aldrich, St. Louis, MO, USA) and a commercially available assay kit (#V1401, MAO-Glo, Promega, Madison, WI, USA), which utilizes the MAO-catalyzed oxidation of a luciferin derivative coupled with esterase activity to produce luminescence. Fluorescent and luminescent readout was obtained using a SpectraMax M5 plate reader (Molecular Devices) equipped with SOFTmax PRO 7.0.3 software. […] Values were reported as mean % inhibition ± SD of triplicate assay wells normalized to background activity and compared to the vehicle control.

[3] = Cytotoxicity analysis, MTS assay; format: cell-based; details: human, SH-SY5Y neuroblastoma cells, MTS, 12 h post treatment, read-out: LC50 (dose corresponding to 50% viability)
Procedure: (§1) SH-SY5Y neuroblastoma cells purchased from ATCC (Manassas, VA, USA) were cultured in Dulbecco’s modified Eagle medium (DMEM) without phenol red and supplemented with 10% heat inactivated human AB serum, 4 mM L-glutamine, and 1% penicillin/streptomycin. As the oxidation of spermine by various polyamine oxidases has been documented in cell culture containing ruminant serum, such as in fetal bovine serum (FBS) and horse serum, human AB serum was used to prevent assay interference. The cells were maintained in 5% CO2 humidified atmosphere at 37 °C. Cell media was replaced every 2 days and the cells were discarded after a maximum of 15 passages.
(§2) The SH-SY5Y neuroblastoma cells were plated in 96-well plates at a density of 30,000 cells/well and allowed to reach 80% confluence, followed by treatment with varying concentrations of inhibitor ranging from 0 to 10 mM for 12 h. Cell viability was assessed by standard MTS assay, in which MTS reagent was added to each well at a concentration of 0.33 mg/mL and incubated at 37 °C for 3 h. Viability was monitored and confirmed by a visual inspection of the cells. Absorbance was read at 490 nm and the absorbance values were normalized to background wells containing varying concentrations of inhibitor, cell media, and MTS reagent. Colorimetric readout was obtained using a SpectraMax M5 plate reader (Molecular Devices) equipped with SOFTmax PRO 7.0.3 software.

[4] = system: SH-SY5Y neuroblastoma cells; assay: Cytotoxicity analysis, MTS assay; format: cell-based; details: doses below 1 mM
Procedure: as §1, §2

T1 sequence (Q9NWM0 whole entry): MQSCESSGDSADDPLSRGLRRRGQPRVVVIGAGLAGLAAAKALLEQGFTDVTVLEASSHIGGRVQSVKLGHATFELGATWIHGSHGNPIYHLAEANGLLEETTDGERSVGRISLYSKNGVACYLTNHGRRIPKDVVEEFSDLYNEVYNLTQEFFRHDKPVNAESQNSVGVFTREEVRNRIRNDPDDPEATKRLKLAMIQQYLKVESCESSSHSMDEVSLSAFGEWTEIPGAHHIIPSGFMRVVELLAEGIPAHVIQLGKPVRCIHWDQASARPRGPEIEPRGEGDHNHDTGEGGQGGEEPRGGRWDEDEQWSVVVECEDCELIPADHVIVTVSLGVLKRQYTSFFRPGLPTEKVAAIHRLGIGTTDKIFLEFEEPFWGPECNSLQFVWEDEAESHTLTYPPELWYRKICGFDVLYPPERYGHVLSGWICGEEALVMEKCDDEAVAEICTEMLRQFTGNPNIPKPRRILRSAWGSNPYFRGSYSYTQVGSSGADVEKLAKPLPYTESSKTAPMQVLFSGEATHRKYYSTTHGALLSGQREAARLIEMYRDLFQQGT

For `Cc1cc([C@H](O)CNCCCNC(=N)N)cc(C)c1O` [Compound 6], the inhibition at 20 µM (SMOX [1]; 20 µM compound, no pre-incubation, triplicate, read-out: % Inhibition at 20 μM ± SD, SMOX) was 99.7 ± 0.1%, the IC50 (SMOX [1]; AUC over 60 s, pH 8) was 0.54 µM and the Mechanism of inhibition (SMOX [2]; Lineweaver–Burk analysis) was “competitive”. For the same compound, the Ki (SMOX [2]; global fit for competitive inhibition, inhibitor 0, 0.1, 1 µM) was 1.6 µM, the inhibition at 20 µM (recombinant human MAO-A) was -6 ± 2.1% and the CC50 at 12 h [3] was 5800 µM. For the same compound, the “Toxicity after 12-h exposure” value [4] was “did not produce significant toxicity”.
